From patent US11479802B2, “Assays for screening activity of modulators of members of the hydroxy steroid (17-beta) dehydrogenase (HSD17B) family” (Regeneron Pharmaceuticals, Inc., priority 2017, dated 2022)

Biological target: T1, human HSD17B13 (Homo sapiens, UniProt Q7Z5P4)
T1 sequence (Q7Z5P4 20-300): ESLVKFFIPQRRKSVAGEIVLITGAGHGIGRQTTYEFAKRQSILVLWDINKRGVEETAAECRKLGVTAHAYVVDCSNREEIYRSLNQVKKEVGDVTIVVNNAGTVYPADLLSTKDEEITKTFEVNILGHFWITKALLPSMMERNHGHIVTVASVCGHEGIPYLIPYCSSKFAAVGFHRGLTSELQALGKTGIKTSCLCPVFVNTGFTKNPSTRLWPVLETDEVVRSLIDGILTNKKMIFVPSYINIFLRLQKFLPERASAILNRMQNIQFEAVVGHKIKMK
Assay: Substrate screening of steroid and bioactive lipid libraries against purified recombinant HSD17B13 (NADH-linked luciferase assay)
Format: biochemical
Conditions: for HSD17B13 Enzymatic Activity Relative Light Units: 500 μM NAD+, 100 ng enzyme, 3 hours at 23° C.; for HSD17B13 Enzymatic Activity Percent Estradiol Control: normalized to 50 μM estradiol after subtraction of 5% DMSO
How it was run: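 Substrates (bioactive lipids 5 μM, steroids 50 μM; 5% DMSO) tested with 500 μM NAD+ and 100 ng recombinant human HSD17B13 in 0.2 M Tris-HCl pH 7.5, 3 h, 23° C. Luminescent NADH detection followed 1 h later; RLU normalized to estradiol (50 μM, 100%) and DMSO (0%) controls.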

[1] = Bioactive Lipid Library, 5 μM bioactive lipid (Estradiol Control 50 μM)
[2] = Bioactive Lipid Library, 5 μM bioactive lipid

Row | Compound | HSD17B13 Enzymatic Activity Relative Light Units [1] | HSD17B13 Enzymatic Activity Percent Estradiol Control [2] | HSD17B13 Enzymatic Activity Relative Light Units (Steroid Library, 50 μM steroid) | HSD17B13 Enzymatic Activity Percent Estradiol Control (Steroid Library, 50 μM steroid)
1 | CCCCCCCCCCCCCCCC(=O)OC[C@H](COP(=O)([O-])OCC[N+](C)(C)C)OC(=O)CCCC(=O)O [PGPC] | 371440 RLU | 6.98% |  | 
2 | C[C@]12C=CC(=O)C=C1CC[C@@H]1[C@@H]2C(=O)C[C@@]2(C)[C@H]1CC[C@]2(O)C(=O)CO [Prednisone] |  |  | 196720 RLU | 0.63%
3 | CC(=O)[C@H]1CC[C@H]2[C@@H]3CCC4=CC(=O)CC[C@]4(C)[C@H]3CC[C@]12C [Progesterone] |  |  | 175680 RLU | 0.26%
4 | CCCCC[C@H](O)/C=C/[C@H]1C=CC(=O)[C@@H]1CCCCCCC(=O)NCCCCCNC(=O)CCCC[C@@H]1SC[C@@H]2NC(=O)N[C@@H]21 [Prostaglandin A1-biotin] | 309320 RLU | 2.07% |  | 
5 | CC/C=C\C[C@H](O)/C=C/[C@H]1C=CC(=O)[C@@H]1C/C=C\CCCC(=O)O [Prostaglandin A3] | 227000 RLU | −4.43% |  | 
6 | CC/C=C\C[C@H](O)/C=C/[C@H]1C(=O)C[C@H](O)[C@@H]1C/C=C\CCCC(=O)O [Prostaglandin D3] | 298960 RLU | 1.25% |  | 
7 | CCCCC[C@H](O)/C=C/[C@H]1[C@H](O)CC(=O)[C@@H]1C/C=C\CCCC(=O)Oc1ccc(NC(=O)c2ccccc2)cc1 [Prostaglandin E2 p-benzamidophenyl ester] | 404280 RLU | 9.58% |  | 
8 | CCCCC[C@H](O)/C=C/[C@H]1[C@H](O)CC(=O)[C@@H]1C/C=C\CCCC(=O)NCCCCCNC(=O)CCCC[C@H]1SC[C@@H]2NC(=O)N[C@@H]21 [Prostaglandin E2-biotin] | 389960 RLU | 4.90% |  | 
9 | CC/C=C\C[C@H](O)/C=C/[C@H]1[C@H](O)CC(=O)[C@@H]1C/C=C\CCCC(=O)O [Prostaglandin E3] | 379960 RLU | 7.66% |  | 
10 | CCCCC[C@H](O)/C=C/[C@@H]1[C@@H](C/C=C\CCCC(=O)NCCCCCNC(=O)CCCC[C@H]2SC[C@@H]3NC(=O)N[C@@H]32)[C@@H](O)C[C@H]1O [Prostaglandin F2α-biotin] | 340200 RLU | 1.14% |  | 
11 | CC/C=C\C[C@H](O)/C=C/[C@@H]1[C@@H](C/C=C\CCCC(=O)O)[C@@H](O)C[C@H]1O [Prostaglandin F3α] | 385360 RLU | 8.08% |  | 
12 | CCCCC[C@H](O)/C=C/[C@@H]1[C@@H](CCCCCCC(=O)O)[C@@H]2C[C@H]1OO2 [Prostaglandin H1] | 145840 RLU | −10.85% |  | 
13 | CCCCC[C@H](O)/C=C/[C@@H]1[C@@H](C/C=C\CCCC(=O)O)[C@@H]2C[C@H]1OO2 [Prostaglandin H2] | 166640 RLU | −9.20% |  | 
14 | CC/C=C\C[C@H](O)/C=C/[C@@H]1[C@H]2C/C(=C/CCCC(=O)[O-])O[C@H]2C[C@H]1O.[Na+] [Prostaglandin I3 (sodium salt)] | 333560 RLU | 3.99% |  | 
15 | CCCCC[C@H](O)/C=C/[C@H]1C(=O)CC(=O)[C@@H]1CCCCCCC(=O)O [Prostaglandin K1] | 223160 RLU | −4.74% |  | 
16 | CCCCC[C@H](O)/C=C/[C@H]1C(=O)CC(=O)[C@@H]1C/C=C\CCCC(=O)O [Prostaglandin K2] | 155600 RLU | −10.08% |  | 
17 | C[C@]12CC[C@H](O)C[C@H]1CC[C@@H]1[C@@H]2CC[C@]2(C)[C@@](O)(c3ccoc3)CC[C@]12O [Rostafuroxin] |  |  | 187520 RLU | 0.47%
18 | CC(=O)S[C@@H]1CC2=CC(=O)CC[C@]2(C)[C@H]2CC[C@@]3(C)[C@@H](CC[C@@]34CCC(=O)O4)[C@H]12 [Spironolactone] |  |  | 184280 RLU | 0.41%
19 | C[C@]12Cc3c[nH]nc3C[C@@H]1CC[C@@H]1[C@@H]2CC[C@@]2(C)[C@H]1CC[C@]2(C)O [Stanazol] |  |  | 140840 RLU | −0.35%
20 | C[C@@H]1C[C@@]2(C)[C@@H](CC[C@@H]3[C@@H]2CC[C@@]2(C)[C@H]3CC[C@]2(C)O)CC1=O [Superdrol] |  |  | 105920 RLU | −0.95%
21 | CC/C=C\C[C@H](O)/C=C/[C@H]1OC(O)C[C@H](O)[C@@H]1C/C=C\CCCC(=O)O (some centres unmarked) [Thromboxane B3] | 348080 RLU | 5.14% |  | 
22 | CCCCC/C=C\C[C@@H](O)/C=C/c1cccc(C[C@@H](O)CCCCO)n1 [U-75302] | 425520 RLU | 7.59% |  | 

Row | Compound | HSD17B13 Enzymatic Activity Relative Light Units [1] | HSD17B13 Enzymatic Activity Percent Estradiol Control [2] | HSD17B13 Enzymatic Activity Relative Light Units (Steroid Library, 50 μM steroid) | HSD17B13 Enzymatic Activity Percent Estradiol Control (Steroid Library, 50 μM steroid)
23 | CCCCC/C=C\C[C@@H](O)/C=C/C=C\CCC(=O)O [tetranor-12(R)-HETE] | 708640 RLU | 31.37% |  | 
24 | CCCCC/C=C\C[C@H](O)/C=C/C=C\CCC(=O)O [tetranor-12(S)-HETE] | 379280 RLU | 4.10% |  | 
25 | [2H]C([2H])(CC(=O)CC[C@H]1C(=O)C[C@H](O)[C@@H]1CCC(=O)O)C([2H])([2H])C([2H])([2H])C(=O)O [tetranor-PGDM-d6] | 375520 RLU | 3.81% |  | 
26 | O=C(O)CCCCC(=O)CC[C@H]1[C@H](O)CC(=O)[C@@H]1CCC(=O)O [tetranor-PGEM] | 348440 RLU | 5.17% |  | 
27 | O=C(O)CCCCC(=O)CC[C@@H]1[C@@H](CCC(=O)O)[C@@H](O)C[C@H]1O [tetranor-PGFM] | 367640 RLU | 6.68% |  | 
28 | CCCCC[C@H](O)C/C=C1/C(=O)C=C[C@@H]1C/C=C\CCCC(=O)O [Δ12-Prostaglandin J2] | 343320 RLU | 4.76% |  | 
29 | CC/C=C\C[C@H](O)/C=C/[C@@H]1[C@@H](CC(=O)CCCCC(=O)O)[C@@H](O)C[C@H]1O [Δ17-6-keto Prostaglandin F1α] | 286120 RLU | 0.24% |  | 
30 | (±)11(12)-EET | 306600 RLU | 1.47% |  | 
31 | Androstanolone acetate |  |  | 200560 RLU | 0.70%
32 | Cholesteryl Linoleate Hydroperoxides | 256120 RLU | −2.28% |  | 
33 | D-myo-Inositol-1,2,3,4-tetraphosphate (sodium salt) | 447960 RLU | 9.28% |  | 
34 | Epiandrosterone acetate |  |  | 210960 RLU | 0.88%
35 | Prostaglandin D2-biotin | 367880 RLU | 3.24% |  | 
36 | Ptdlns-(3)-P1 (1,2-dioctanoyl) (sodium salt) | 319680 RLU | −0.40% |  | 
37 | Ptdlns-(3)-P1 (1,2-dipalmitoyl) (ammonium salt) | 15520 RLU | −23.38% |  | 
38 | Ptdlns-(3,4)-P2 (1,2-dipalmitoyl) (sodium salt) | 351680 RLU | 2.01% |  | 
39 | Ptdlns-(3,4,5)-P3 (1,2-dipalmitoyl) (sodium salt) | 334600 RLU | 0.72% |  | 
40 | Ptdlns-(4)-P1 (1,2-dipalmitoyl) (ammonium salt) | 123240 RLU | −15.24% |  | 
41 | Ptdlns-(4,5)-P2 (1,2-dioctanoyl) (sodium salt) | 348680 RLU | 1.79% |  | 
42 | Ptdlns-(4,5)-P2 (1,2-dipalmitoyl) (ammonium salt) | 24120 RLU | −22.73% |  | 
43 | Ptdlns-(5)-P1 (1,2-dipalmitoyl) (ammonium salt) | 19160 RLU | −23.10% |  | 
